Assay results taken from ChEMBL document CHEMBL1131985, “9-[(2'S,3'S)-3'-formyl-2',3'-dihydroxypropyl]adenine: a facile affinity-labeling probe of human S-adenosyl-L-homocysteine hydrolase” (Bioorg Med Chem Lett, 1999).

What was measured:
Adenosylhomocysteinase [1] = molecular target: T1, Adenosylhomocysteinase (Homo sapiens, UniProt P23526); assay: Concentration with maximum apparent affinity (Kapp) for S-adenosyl-l-homocysteine (SAH) hydrolase was reported
Target sequence in this assay (P23526 2-432 limits assumed): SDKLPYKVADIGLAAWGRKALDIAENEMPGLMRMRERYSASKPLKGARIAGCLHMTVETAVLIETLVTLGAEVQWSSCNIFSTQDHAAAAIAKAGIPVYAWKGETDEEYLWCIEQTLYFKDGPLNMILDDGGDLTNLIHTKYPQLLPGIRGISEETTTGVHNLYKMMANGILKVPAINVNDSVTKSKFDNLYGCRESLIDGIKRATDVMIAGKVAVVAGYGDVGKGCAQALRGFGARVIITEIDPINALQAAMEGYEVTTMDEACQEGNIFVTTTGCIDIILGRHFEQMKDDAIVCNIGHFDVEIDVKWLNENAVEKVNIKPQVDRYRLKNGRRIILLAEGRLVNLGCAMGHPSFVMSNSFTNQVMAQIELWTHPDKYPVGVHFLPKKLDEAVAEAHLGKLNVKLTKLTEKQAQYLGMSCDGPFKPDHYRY

Adenosylhomocysteinase [2] = molecular target: T1, Adenosylhomocysteinase; assay: Affinity and reactivity of an affinity-labeling reagent, was assessed from the inhibitory constant value
Target sequence in this assay (P23526 whole entry): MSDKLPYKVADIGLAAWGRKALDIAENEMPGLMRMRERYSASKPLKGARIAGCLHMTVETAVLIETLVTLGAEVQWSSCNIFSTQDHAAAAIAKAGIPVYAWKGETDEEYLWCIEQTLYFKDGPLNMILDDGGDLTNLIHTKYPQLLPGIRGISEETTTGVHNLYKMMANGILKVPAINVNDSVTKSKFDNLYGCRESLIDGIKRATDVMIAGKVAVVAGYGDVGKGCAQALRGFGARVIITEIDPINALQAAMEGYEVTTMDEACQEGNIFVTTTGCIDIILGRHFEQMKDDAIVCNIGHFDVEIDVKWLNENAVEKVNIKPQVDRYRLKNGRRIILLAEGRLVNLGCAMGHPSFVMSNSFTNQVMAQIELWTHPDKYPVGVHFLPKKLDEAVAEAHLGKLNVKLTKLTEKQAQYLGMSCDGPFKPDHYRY

Adenosylhomocysteinase [3] = molecular target: T1, Adenosylhomocysteinase; assay: Affinity and reactivity of an affinity-labeling reagent, was assessed from the inactivation constant value
Target sequence in this assay (P23526 2-432 limits assumed): as the sequence (P23526 2-432 limits assumed) above

K app (Adenosylhomocysteinase [1]): 100 µM | Ki (Adenosylhomocysteinase [2]): 8.8 µM | K inact (Adenosylhomocysteinase [3]): 0.09 min⁻¹
SMILES: Nc1ncnc2c1ncn2C[C@H](O)[C@H](O)C=O
